From ChEMBL document CHEMBL4725353, “Discovery of Pyrido[2,3-b]indole Derivatives with Gram-Negative Activity Targeting Both DNA Gyrase and Topoisomerase IV” (J Med Chem, 2020) come the findings set out here.

Data set [1] has as its system Escherichia coli. As to the kind of experiment: Antibacterial activity against Escherichia coli ATCC 35218 assessed as reduction in microbial growth preincubated for 20 to 24 hrs followed by subculture in absence of compound and measured on day 4 CLSI based broth microdilution susceptibility method. Type of data set: functional. The settings on record: time hrs 20-24. (Broth dilution looks for growth in wells or tubes with falling amounts of substance.)

Data set [2] has as its system Escherichia coli. The experiment in a line: Antibacterial activity against Escherichia coli ATCC BAA-2340 assessed as reduction in microbial growth preincubated for 20 to 24 hrs followed by subculture in absence of compound and measured on day 4 CLSI based broth microdilution susceptibility method. The format is functional. As to conditions: time hrs 20-24.
The subject of data set [3] is Klebsiella pneumoniae. As to the kind of experiment: Antibacterial activity against Klebsiella pneumoniae ATCC 10031 assessed as reduction in microbial growth preincubated for 20 to 24 hrs followed by subculture in absence of compound and measured on day 4 CLSI based broth microdilution susceptibility method. The format is functional. The settings on record: time hrs 20-24.

The subject of data set [4] is Klebsiella pneumoniae. As to the kind of experiment: Antibacterial activity against Klebsiella pneumoniae ATCC 700603 assessed as reduction in microbial growth preincubated for 20 to 24 hrs followed by subculture in absence of compound and measured on day 4 CLSI based broth microdilution susceptibility method. The format is functional. The settings on record: time hrs 20-24.

In data set [5] the test system is Klebsiella pneumoniae. The experiment in a line: Antibacterial activity against Klebsiella pneumoniae ATCC BAA-2146 assessed as reduction in microbial growth preincubated for 20 to 24 hrs followed by subculture in absence of compound and measured on day 4 CLSI based broth microdilution susceptibility method. The format is functional. As to conditions: time hrs 20-24.

Data set [6] relates to Acinetobacter baumannii. The experiment in a line: Antibacterial activity against Acinetobacter baumannii ATCC 19606 assessed as reduction in microbial growth preincubated for 20 to 24 hrs followed by subculture in absence of compound and measured on day 4 CLSI based broth microdilution susceptibility method. The format is functional. The settings on record: time hrs 20-24.

For data set [7], the system named is Acinetobacter baumannii. As to the kind of experiment: Antibacterial activity against Acinetobacter baumannii ATCC 51432 assessed as reduction in microbial growth preincubated for 20 to 24 hrs followed by subculture in absence of compound and measured on day 4 CLSI based broth microdilution susceptibility method. The format is functional. As to conditions: time hrs 20-24.

The test system of data set [8] is Acinetobacter baumannii. As to the kind of experiment: Antibacterial activity against Acinetobacter baumannii ATCC BAA-747 assessed as reduction in microbial growth preincubated for 20 to 24 hrs followed by subculture in absence of compound and measured on day 4 CLSI based broth microdilution susceptibility method. The format is functional. As to conditions: time hrs 20-24.

Data set [9] has as its system Pseudomonas aeruginosa. As to the kind of experiment: Antibacterial activity against Pseudomonas aeruginosa PAO1 assessed as reduction in microbial growth preincubated for 20 to 24 hrs followed by subculture in absence of compound and measured on day 4 CLSI based broth microdilution susceptibility method. Type of data set: functional. As to conditions: time hrs 20-24.

Data set [10] has as its system Pseudomonas aeruginosa. The experiment in a line: Antibacterial activity against Pseudomonas aeruginosa ATCC 27853 assessed as reduction in microbial growth preincubated for 20 to 24 hrs followed by subculture in absence of compound and measured on day 4 CLSI based broth microdilution susceptibility method. The format is functional. The settings on record: time hrs 20-24.

Data set [11] has as its system Pseudomonas aeruginosa. As to the kind of experiment: Antibacterial activity against Pseudomonas aeruginosa ATCC BAA-2113 assessed as reduction in microbial growth preincubated for 20 to 24 hrs followed by subculture in absence of compound and measured on day 4 CLSI based broth microdilution susceptibility method. The format is functional. As to conditions: time hrs 20-24.

Data set [12] can be described thus: Intrinsic clearance in mouse hepatocytes by LC/MS-MS analysis. The format is ADME, cell-based, Hepatocyte.
Data set [13] in a line: Protein binding in plasma (unknown origin) assessed as unbound fraction at 1 uM after 5 hrs by LC/MS-MS analysis. Type of data set: ADME, cell-free.
A short description of data set [14]: Cmax/dose in iv dosed CD-1 mouse measured up to 24 hrs by LC-MS/MS analysis. Type of data set: ADME, organism-based. As to conditions: in vivo.
The nature of data set [15]: AUC/dose in iv dosed CD-1 mouse measured up to 24 hrs by LC-MS/MS analysis. Type of data set: ADME, organism-based. As to conditions: in vivo.
Data set [16] is described as follows: Clearance in iv dosed CD-1 mouse measured up to 24 hrs by LC-MS/MS analysis. Type of data set: ADME, organism-based. As to conditions: in vivo.
Data set [17] can be described thus: Half life in iv dosed CD-1 mouse measured up to 24 hrs by LC-MS/MS analysis. Type of data set: ADME, organism-based. As to conditions: in vivo.
A short description of data set [18]: Volume of distribution at steady state in iv dosed CD-1 mouse measured up to 24 hrs by LC-MS/MS analysis. The format is ADME, organism-based. As to conditions: in vivo, read-out: Vdss.
A short description of data set [19]: Plasma protein binding in iv dosed CD-1 mouse measured up to 24 hrs by LC-MS/MS analysis. Type of data set: ADME, organism-based. As to conditions: read-out: PPB (converted).
The next data set is described as follows: in vitro. As to conditions: mouse, liver microsomes. For orientation: Liver microsomes are vesicles of endoplasmic reticulum, rich in cytochrome P450 enzymes.
Data set [20] can be described thus: physchem. As to conditions: PBS, pH 6.5.
Description: Solubility of compound in PBS at pH 6.5 incubated for over night by HPLC-UV based lyophilization solubility assay
In data set [21] the test system is Escherichia coli. As to the kind of experiment: microbe, parasite or virus in culture. The settings on record: ATCC 25922.
Description: Antibacterial activity against Escherichia coli ATCC 25922 assessed as reduction in microbial growth preincubated for 20 to 24 hrs followed by subculture in absence of compound and measured on day 4 CLSI based broth microdilution susceptibility method
In data set [22] the test system is Escherichia coli. The experiment in a line: Antibacterial activity against Escherichia coli ATCC 25922 infected in ICR mouse model of neutropenic thigh infection assessed as reduction in microbial growth at 10 to 25 mg/kg, iv and measured after 12 hrs. As to conditions: dose mg/kg 10-25, time 12.0 hrs. Type of data set: functional, organism-based.
Data set [23] relates to Escherichia coli. As to the kind of experiment: Antibacterial activity against Escherichia coli ATCC 25922 infected in ICR mouse model of neutropenic thigh infection assessed as reduction in microbial growth at 40 to 45 mg/kg, iv bid for 12 hrs. The format is functional, organism-based.
Data set [24] has as its system Escherichia coli. As to the kind of experiment: Antibacterial activity against Escherichia coli ATCC 25922 infected in ICR mouse model of neutropenic thigh infection assessed as reduction in colony forming unit at 45 mg/kg, iv bid for 12 hrs. Type of data set: functional, organism-based.
Data set [25] is described as follows: Ratio of fAUC in Escherichia coli ATCC 25922 infected ICR mouse model of neutropenic thigh infection to MIC for Escherichia coli ATCC […]. Type of data set: ADME. The settings on record: 45 mg/kg, 12 h.
The nature of data set [26]: fAUC in Escherichia coli ATCC 25922 infected ICR mouse model of neutropenic thigh infection. Type of data set: ADME. The settings on record: 45 mg/kg, 12 h.
Data set [27] can be described thus: physchem.
Description: Ionization constant (acid), pKa of the compound by photometric titration assay

What is called clearance is the volume of plasma or blood freed of the substance per unit of time. Low readings indicate inefficient removal, high ones efficient removal. The half-life is the time needed for the level to fall by half in the phase considered. A low value points to fast loss. As a reminder, the CLint scaled is the rate of metabolic loss divided by the concentration. A higher CLint scaled goes with faster metabolism. Usually solubility stands for the dissolved amount per volume that the medium holds. As a reminder, the pKa is the pH at which an ionisable group is half protonated. Low values mean a stronger acid or weaker base, high ones a weaker acid or stronger base.

SMILES strings stand for the structures. In brackets after ≈: the same amount, converted by molar mass. Activity calls are given as the source filed them.

Description for in vitro: Intrinsic clearance in mouse liver microsomes preincubated for 10 mins followed by NADPH regenerating system addition and measured up to 30 mins by LC/MS-MS analysis

`CCNc1cc(F)cc2c1[nH]c1ncc(-c3cnc(OC)nc3)c(-n3ncc4c3CNC4)c12`: the MIC in the data set on Escherichia coli [1] stood at 5.56 µg/mL; in the data set with Escherichia coli [2], 2.78 µg/mL; with Klebsiella pneumoniae [3] it was 0.09 µg/mL; with Klebsiella pneumoniae [4], 22.2 µg/mL; with Klebsiella pneumoniae [5], 22.2 µg/mL; in the data set with Acinetobacter baumannii [6] it was 5.56 µg/mL. For the same compound, the MIC in the data set with Acinetobacter baumannii [7] worked out at 5.56 µg/mL; with Acinetobacter baumannii [8] it was 2.78 µg/mL; with Pseudomonas aeruginosa [9], 10 µg/mL; in the data set on Pseudomonas aeruginosa [10], 11.1 µg/mL; with Pseudomonas aeruginosa [11], 11.1 µg/mL; against Escherichia coli [21], 0.81 µg/mL (≈ 1.82 µM). In data set [12], this compound displayed a CLH of 53.9 µg/mL. Moreover, the fraction unbound at 5 h, 1 µM in data set [13] amounted to 0.11. The same compound had a Cmax/dose in [14] of 792 kg·ng/mL/mg. The AUC/dose in data set [15] amounted to 327 kg·ng·h/mL/mg. Moreover, the clearance in data set [16] came to 51 mL/min/kg. The compound further showed a half-life in [17] of 0.8 h. The Vd in data set [18] worked out at 1.6 L/kg. Further, the fraction unbound at 24 h in [19] was 0.11. In the data set “in vitro”, this compound returned a CLint scaled at 0.5 h of 21.8 mL/min/kg. The same compound had a solubility in “physchem [20]” of 350 µg/mL (≈ 787 µM).

As for `CCNc1cc(F)cc2c1[nH]c1ncc(-c3cnc(OC)nc3)c(-n3cc(CN)c(C(F)(F)F)n3)c12`, the MIC was 3.13 µg/mL in the data set with Escherichia coli [1]; 12.5 µg/mL in the data set on Escherichia coli [2]; less than 0.02 µg/mL with Klebsiella pneumoniae [3]; 6.26 µg/mL in the data set with Klebsiella pneumoniae [4]; 12.5 µg/mL with Klebsiella pneumoniae [5]; 0.78 µg/mL with Acinetobacter baumannii [6]. The MIC was 0.78 µg/mL in the data set with Acinetobacter baumannii [7]; 0.39 µg/mL in the data set with Acinetobacter baumannii [8]; 1.3 µg/mL in the data set on Pseudomonas aeruginosa [9]; 1.56 µg/mL with Pseudomonas aeruginosa [10]; 1.56 µg/mL in the data set with Pseudomonas aeruginosa [11]; 0.31 µg/mL (≈ 0.619 µM) in the data set on Escherichia coli [21]. The compound further displayed a CLH in data set [12] of 45.3 µg/mL. The fraction unbound at 5 h, 1 µM in data set [13] amounted to 0.027. The compound also gave a Cmax/dose in data set [14] of 494 kg·ng/mL/mg. The AUC/dose in [15] was 341 kg·ng·h/mL/mg. Also, the clearance in data set [16] stood at 48 mL/min/kg. This compound gave a half-life in [17] of 1.6 h. Also, the Vd in data set [18] was 3.6 L/kg. The fraction unbound at 24 h in data set [19] was 0.11. The outcome in the data set on Escherichia coli [22], with Escherichia coli [23] and in the data set on Escherichia coli [24] was Active. In addition, in [25], the fAUC/MIC entry is “>= 6”. Also, the fAUC in data set [26] came out at 30000 ng·h/mL. In “in vitro”, this compound gave a CLint scaled at 0.5 h of less than 20.2 mL/min/kg. The compound also displayed a solubility in “physchem [20]” of 15 µg/mL (≈ 30 µM).

Take `CCNc1cc(F)cc2c1[nH]c1ncc(-c3cncc(C#N)c3)c(-n3cc(CN)c(C(F)(F)F)n3)c12`: the MIC in the data set on Escherichia coli [1] is 1 µg/mL; in the data set with Escherichia coli [2] it was 2 µg/mL; with Klebsiella pneumoniae [3] it was less than 0.03 µg/mL; in the data set with Klebsiella pneumoniae [4] it was 4 µg/mL; with Klebsiella pneumoniae [5] it was 8 µg/mL; in the data set on Acinetobacter baumannii [6] it was 1 µg/mL. In addition, the MIC is 1 µg/mL in the data set with Acinetobacter baumannii [7]; 0.5 µg/mL in the data set with Acinetobacter baumannii [8]; 2 µg/mL with Pseudomonas aeruginosa [9]; 2 µg/mL in the data set on Pseudomonas aeruginosa [11]; less than 0.25 µg/mL in the data set on Escherichia coli [21]. Further, the CLH in data set [12] turned out to be 48.6 µg/mL. The fraction unbound at 5 h, 1 µM in data set [13] came to 0.012. Also, the Cmax/dose in data set [14] was determined as 305 kg·ng/mL/mg. For the same compound, the AUC/dose in [15] turned out to be 324 kg·ng·h/mL/mg. This compound also yielded a clearance in data set [16] of 50 mL/min/kg. In data set [17], this compound had a half-life of 1.8 h. In data set [18], the Vd was 5.8 L/kg. Further, the fraction unbound at 24 h in data set [19] was 0.11. Moreover, in “physchem [27]”, the pKa amounted to 8.08. Besides, in “in vitro”, the CLint scaled at 0.5 h stood at 47 mL/min/kg. This compound displayed a solubility in the data set “physchem [20]” of 90 µg/mL (≈ 182 µM).
